Results reported in patent US10919929B2, “Glucocorticoid inhibitors for treatment of prostate cancer” (Sloan-Kettering Institute for Cancer Research, priority 2013, dated 2021).

Columns and labels:
[1] = system: AR target genes in LREX′ cells; assay: Expression of AR target genes in LREX′ cell line in steroid depleted media (RT-qPCR); type: cell-based, human
Text: A. Normalized expression array signal (Illumina HT-12) of a suite of 74 AR target genes in control (n=10), 4 day (n=8), and LREX′ (n=8, right) xenograft tumors. Genes are ranked by degree of restoration of expression in resistant tissue ((Res-4 day)/(Control-4 day)). All resistant tissues were continued on anti-androgen treatment through time of harvest. B. Fractional restoration values of each of the 74 AR targets in LREX′ xenografts (n=8) or resistant tissues from the validation cohort (n=12). C. GR mRNA in resistant tissues used in B. D. Expression of AR target genes in the LREX′ cell line in steroid depleted media after 8 hours of treatment with the indicated agonists, in vitro. […] A. LnCaP/AR cells engineered to express GFP or GR were treated with indicated drugs. […] D. Control or AR siRNA knock-down in LREX′ followed by treatment with indicated drugs. […] Cells were treated in charcoal stripped media. Expression determined by RT-qPCR+/−s.e.m.
LREX′ cells were derived from a single enzalutamide resistant tumor that was harvested, disaggregated with collagenase treatment, and then maintained in RPMI supplemented with 20% FBS and 1 μM enzalutamide. Cells were initially grown on collagen-coated flasks until confluent and then were maintained on standard tissue culture dishes. CS1 were similarly derived from vehicle treated tumors and maintained in standard LNCaP/AR media. LNCaP/AR and LREX′ cells were cultured in phenol-red free RPMI with 10% charcoal-stripped FBS prior to drug treatments.

[2] = system: GR mRNA in LREX′ cells; assay: GR mRNA in LREX′ cells cultured in vitro; type: cell-based, human
[3] = system: AR target gene expression; assay: AR target gene expression with GR antagonists; type: cell-based
[4] = system: LNCaP/AR xenograft tumors; assay: LNCaP/AR xenograft pilot cohort, continual antiandrogen treatment until acquired resistance
[5] = target: GR (Homo sapiens, UniProt P04150); details: patients with Cushing syndrome; cited from earlier work
Chain of GR (P04150 whole entry): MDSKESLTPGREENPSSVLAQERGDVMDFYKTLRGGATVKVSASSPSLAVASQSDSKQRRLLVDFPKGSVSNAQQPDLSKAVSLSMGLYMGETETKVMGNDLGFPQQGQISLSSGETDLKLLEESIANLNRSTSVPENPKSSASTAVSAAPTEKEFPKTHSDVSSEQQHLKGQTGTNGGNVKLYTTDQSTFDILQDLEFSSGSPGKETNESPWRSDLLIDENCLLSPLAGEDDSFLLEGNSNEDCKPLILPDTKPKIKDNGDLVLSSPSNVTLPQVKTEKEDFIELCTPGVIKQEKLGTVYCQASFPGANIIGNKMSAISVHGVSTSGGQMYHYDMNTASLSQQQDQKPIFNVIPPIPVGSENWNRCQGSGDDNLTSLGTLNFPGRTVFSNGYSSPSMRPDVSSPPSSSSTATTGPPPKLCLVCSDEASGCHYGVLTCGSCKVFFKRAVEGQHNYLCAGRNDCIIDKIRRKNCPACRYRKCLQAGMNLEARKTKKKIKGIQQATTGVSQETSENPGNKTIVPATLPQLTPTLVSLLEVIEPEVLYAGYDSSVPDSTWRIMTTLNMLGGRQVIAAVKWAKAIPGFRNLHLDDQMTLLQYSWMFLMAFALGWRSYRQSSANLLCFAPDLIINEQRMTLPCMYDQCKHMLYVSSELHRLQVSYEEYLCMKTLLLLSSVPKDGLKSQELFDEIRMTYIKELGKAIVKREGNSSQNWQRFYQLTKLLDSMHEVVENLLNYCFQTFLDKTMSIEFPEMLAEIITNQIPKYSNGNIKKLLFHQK

[6] = system: PSA; assay: Maximal PSA decline in patients receiving enzalutamide; type: in vivo; details: enzalutamide 160 mg daily
Experimental: Patients were treated with enzalutamide 160 mg daily. Bone marrow biopsy and aspirate (˜5 mL) were performed before treatment and at week 8. The bone marrow specimens were obtained by transiliac biopsy, and samples were processed according to standard MD Anderson Cancer Center decalcification and fixation procedures. After pathologic evaluation, samples were stored in the MD Anderson Cancer Center Prostate Cancer Tissue Bank. Imaging studies were performed at the time of suspected prostate cancer progression or at the treating physician's discretion, but generally not prior to 12 weeks post-treatment initiation. […] Retrospective analysis for GR was performed by IHC on […] formalin-fixed, paraffin-embedded bone marrow biopsy sections with anti-GR at a dilution of 1:200 (BD Transduction Laboratories #611227). A Dako autostainer and standard 3,3-diaminobenzidine were used. GR expression was assessed in a blinded fashion by two pathologists scoring at least 100 tumor cells per specimen. […]
To determine whether GR expression is a feature of clinical antiandrogen resistance, GR expression was evaluated in bone metastases from patients receiving enzalutamide. […] Using a GR IHC assay optimized for use in bone marrow samples, the percentage of GR-positive tumor cells was quantified and the data was dichotomized based on clinical response. […]

[7] = system: LREX′ cells transcriptome; assay: Expression profiling of LREX′ cells after DHT or Dex, AR and GR signatures; type: cell-based, human; details: enzalutamide 10 micromolar
[8] = system: GR protein in CS1 or LnCaP/AR cells; assay: Intracellular GR flow cytometry of CS1 and LnCaP/AR cells under enzalutamide; details: enzalutamide 1 micromolar, 4 week experiment
Experimental: (§1) Cells were re-suspended in Fixation/Permeabilization working solution (eBioscience; San Diego, Calif., USA) at a concentration of 1-2×10^6 cells/ml for 30 minutes at room temperature. The cells were subsequently stained with primary antibodies, Rabbit (DA1E) mAb IgG XP® Isotype Control, androgen receptor (D6F11) XP® Rabbit mAb, or glucocorticoid receptor (D6H2L) XP® Rabbit mAb (Cell Signaling Technology; Danvers, Mass., USA) for 20 minutes at room temperature. The cells were washed twice with Flow Cytometry Staining Buffer (eBioscience; San Diego, Calif., USA), and then stained with secondary antibody, Allophycocyanin-AffiniPure F(ab′)2 Fragment Donkey Anti-Rabbit IgG (Jackson ImmunoResearch Laboratories, Inc.; Westgrove, Pa., USA) for 20 minutes at room temperature. Following two more washes, the cells were re-suspended in Flow Cytometry Staining Buffer and analyzed by flow cytometry on a LSRII (BD Biosciences; San Jose, Calif., USA) using FlowJo software (Tree Star, Ashland, Oreg., USA). For GR staining, cells were maintained in their standard media and treated with dexamethasone for 20 minutes prior to harvest to fully expose antigen. For AR staining, cells were cultured in charcoal stripped media without added ligands for 3 days prior to harvest.

[9] = system: VCaP cells; assay: VCaP cell viability by CellTiter-Glo; type: cell-based; details: Enz 10 micromolar, standard culture conditions
Experimental: Enz=10 micromolar, Dex=100 nM, CMP 15=1 micromolar. A. Western blot analysis of prostate cancer cell lines. B, C and D. Cell viability assessed by CellTiter-Glo (Promega) assay and normalized to day 1 value after indicated treatments+/−s.e.m. E. Confirmation of GR knock-down by western blot after infection with GR targeting shRNA. F. Apoptosis as assessed by cPARP western blot after 3 days of indicated treatment. G. A suite of AR targets relevant to VCaP was defined (see methods) and normalized expression of each gene after 24 hours of indicated drug treatments is depicted by heat map and ranked by degree of induction with Dex. H. Expression of the top two genes from B. (KLK2 and FKBP5) after 24 hours of indicated treatments+/−s.e.m.
VCaP: Cells were plated in triplicate and then assayed in triplicate at the time points indicated using CellTiter-Glo (Promega). Viability is plotted normalized to day 1. For knockdown studies, cells were infected and then plated 3 days later for the experiment without prior drug selection. LnCaP/AR and sub-lines: Equivalent numbers of cells were plated and then harvested and counted in triplicate at indicated time points using the Beckman Coulter Vi-Cell XR. Cells were passaged at each time point and identical numbers of cells re-plated. Fold increase in cell numbers were determined for each time interval. […]

[10] = system: LnCaP/AR and sub-lines; assay: In vitro growth by cell counting (Vi-cell); type: cell-based; details: 1 micromolar enzalutamide
Experimental: . […] C. […] AUC=area under curve. […] .
VCaP: Cells were plated in triplicate and then assayed in triplicate at the time points indicated using CellTiter-Glo (Promega). Viability is plotted normalized to day 1. For knockdown studies, cells were infected and then plated 3 days later for the experiment without prior drug selection. LnCaP/AR and sub-lines: Equivalent numbers of cells were plated and then harvested and counted in triplicate at indicated time points using the Beckman Coulter Vi-Cell XR. Cells were passaged at each time point and identical numbers of cells re-plated. Fold increase in cell numbers were determined for each time interval.

[11] = system: GR protein in LREX′ cells; assay: Intracellular GR flow cytometry of LREX′ cells on enzalutamide withdrawal and re-exposure; details: LREX′off cells re-exposed to enzalutamide 1 micromolar
Experimental: as §1

[12] = mouse, in vivo; cited from earlier work
[13] = list continues over r20-r28; cited from earlier work
[14] = in vivo; cited from earlier work
[15] = steroid depleted media, 8 hours
[16] = harvest after progression on continued treatment

## C[C@]12CCC(=O)C[C@@H]1CC[C@@H]1[C@@H]2CC[C@]2(C)[C@@H](O)CC[C@@H]12 [DHT, dihydrotestosterone]
[1]; [15]
  induction of KLK3 (PSA): comparably induced
  regulation of 8 genes (7 AR targets and PSA): regulated
[2]; LREX′, charcoal stripped media, 8 hours DHT exposure
  GR mRNA levels: reduced GR mRNA levels

## CC#C[C@]1(O)CC[C@H]2[C@@H]3CCC4=CC(=O)CCC4=C3[C@@H](c3ccc4c(c3)OCO4)C[C@@]21C [ORG 34517]
[3]
  AR target gene expression: activate AR target gene expression

## CNC(=O)c1ccc(N2C(=S)N(c3ccc(C#N)c(C(F)(F)F)c3)C(=O)C23CCC3)cc1F [RD162]
[4]; LNCaP/AR xenografts in castrate mice, 10 mg/kg oral, day 28
  % Regression: D 28 Mean: 80%
[4]; [16]
  Day of Harvest: Mean: D173
  Mean Tumor Volume (mm^3) at harvest: 554 mm^3

## CC#C[C@]1(O)CC[C@H]2[C@@H]3CCC4=CC(=O)CCC4=C3[C@@H](c3ccc(N(C)C)cc3)C[C@@]21C [RU486, RU-486]
[5]
  risk-benefit profile of GR inhibition in humans: acceptable risk-benefit profile

## CNC(=O)c1ccc(N2C(=S)N(c3ccc(C#N)c(C(F)(F)F)c3)C(=O)C2(C)C)cc1F [enzalutamide]
[6]; good responders (benefit > 6 months)
  patients with maximal PSA decline greater than 50%: 11 of 13
[6]; poor responders (discontinued < 6 months)
  patients with maximal PSA decline greater than 50%: 1 of 14
[7]
  effect on Dex-induced gene expression (heatmap): not impacted
[8]
  median GR expression intensity: no change in median expression intensity
[1]; enzalutamide 10 micromolar
  effect on DHT regulation of 8 AR target genes: blocked
  effect on Dex activity: did not notably affect
[9]
  growth of VCaP cells: inhibited growth
[10]
  antiproliferative effect in vitro: weak antiproliferative effect
[2]; LREX′ cells, FBS media without enzalutamide, 23 days
  GR mRNA levels after enzalutamide withdrawal in vitro: dropped as early as 1 day after discontinuation
[2]; LREX′, 10 micromolar enzalutamide, 8 hours
  effect of co-treatment on DHT reduction of GR mRNA: reversed
[11]
  doubling time of GR expression induction: 6.8 days
[12]
  half-life in mice: prolonged half-life

## CC(C)C(=O)Nc1ccc([N+](=O)[O-])c(C(F)(F)F)c1 [flutamide]
[13]
  Adverse Drug Reactions: Hot flushes, loss of libido, impotence,
[14]
  Distribution: Protein-binding: Distribution: Protein-binding: 90%
  Excretion: Urine, faeces (small amounts)
